Measured values as given in US20240327375A1, “SUBSTITUTED HETEROBICYCLIC DERIVATIVES AS NEGATIVE ALLOSTERIC MODULATORS OF MGLU7 RECEPTOR” (priority 2021, published 2024).

target: T1, human mGlu7 (Homo sapiens, UniProt Q14831); assay: mGlu7 assay on HEK-expressing human mGlu7: fluorescent cell-based Ca2+ mobilization (FLIPR384), inhibition of EC80 L-AP4 response; conditions: HEK-293 cells expressing hmGlu7, EC80 L-AP4 stimulation; mean of at least three independent experiments in duplicate; read-out: Ca^2+ Flux (mean IC50)
T1 construct: expressed in transfected cells
Source text: mGlu7 Assay on HEK-Expressing Human mGlu7
The cDNA encoding the human metabotropic glutamate 7 receptor (hmGlu7), (accession number NM_181874.2, NCBI Nucleotide database browser), was subcloned into an expression vector containing also the hygromycin resistance gene. In parallel, the cDNA encoding a G protein allowing redirection of the activation signal to intracellular calcium flux was subcloned into a different expression vector containing also the Puromycin resistance gene. Transfection of both these vectors into HEK293 cells with PolyFect reagent (Qiagen) according to supplier's protocol, and hygromycin and puromycin treatment allowed selection of antibiotic resistant cells which had integrated stably one or more copies of the plasmids. Positive cellular clones expressing hmGlu7 were identified in a functional assay measuring changes in calcium fluxes in response to glutamate and L-AP4 or known mGlu7 orthosteric antagonists.
HEK-293 cells expressing hmGlu7 were maintained in media containing DMEM, Fetal Bovine Serum (10%), Glutamax™ (2 mM), penicillin (100 units/mL), streptomycin (100 μg/mL), geneticin (100 μg/mL) and hygromycin-B (40 μg/mL) and puromycin (1 μg/mL) at 37° C. with 5% CO2 in a humidified atmosphere.
Fluorescent Cell Based- Ca^+ Mobilization Assay Human mGlu7 HEK-293 cells were plated out 24 hours prior to a fluorescent cell-based calcium mobilization assay using FLIPR^384 assay (Molecular Device, Sunnyvale, CA, USA) in black-walled, clear-bottomed, poly-L-ornithine-coated 384-well plates at a density of 25,000 cells/well in a glutamine/glutamate free DMEM medium containing fetal bovine serum (10%), penicillin (100 units/mL), streptomycin (100 μg/mL) and doxycyline (1 μg/ml) at 37° C. with 5% CO2 in a humidified atmosphere.
On the day of the assay, the medium was aspirated and the cells were loaded with a 3 μM solution of Fluo4-AM (LuBioScience, Lucerne, Switzerland) in 0.03% pluronic acid. After 1 hour at 37° C./5% CO2, the non incorporated dye was removed by washing cell plate with the assay buffer. All assays were performed in a pH 7.4 buffered-solution containing 20 mM HEPES, 143 mM NaCl, 6 mM KCl, 1 mM MgSO4, 1 mM CaCl2, 0.125 mM sulfinpyrazone and 0.1% glucose.
After 10 s of basal fluorescence recording, various concentrations of the compounds of the invention were added to the cells. Changes in fluorescence levels were first monitored for 180 s in order to detect any agonist activity of the compounds. Then the cells were stimulated by an EC80 L-AP4 concentration for an additional 110 s in order to measure inhibiting activities of the compounds of the invention. EC80 L-AP4 concentration is the concentration giving 80% of the maximal glutamate response.
The concentration-response curves of L-AP4 or representative compounds of the present invention were generated using the Prism GraphPad software (Graph Pad Inc, San Diego, USA). The curves were fitted to a four-parameter logistic equation: […]
allowing determination of IC50 values.
The Table 3 below represents the mean IC50 obtained from at least three independent experiments of selected molecules performed in duplicate.

T1 sequence (Q14831 35-922 isoform Q14831-2 limits assumed): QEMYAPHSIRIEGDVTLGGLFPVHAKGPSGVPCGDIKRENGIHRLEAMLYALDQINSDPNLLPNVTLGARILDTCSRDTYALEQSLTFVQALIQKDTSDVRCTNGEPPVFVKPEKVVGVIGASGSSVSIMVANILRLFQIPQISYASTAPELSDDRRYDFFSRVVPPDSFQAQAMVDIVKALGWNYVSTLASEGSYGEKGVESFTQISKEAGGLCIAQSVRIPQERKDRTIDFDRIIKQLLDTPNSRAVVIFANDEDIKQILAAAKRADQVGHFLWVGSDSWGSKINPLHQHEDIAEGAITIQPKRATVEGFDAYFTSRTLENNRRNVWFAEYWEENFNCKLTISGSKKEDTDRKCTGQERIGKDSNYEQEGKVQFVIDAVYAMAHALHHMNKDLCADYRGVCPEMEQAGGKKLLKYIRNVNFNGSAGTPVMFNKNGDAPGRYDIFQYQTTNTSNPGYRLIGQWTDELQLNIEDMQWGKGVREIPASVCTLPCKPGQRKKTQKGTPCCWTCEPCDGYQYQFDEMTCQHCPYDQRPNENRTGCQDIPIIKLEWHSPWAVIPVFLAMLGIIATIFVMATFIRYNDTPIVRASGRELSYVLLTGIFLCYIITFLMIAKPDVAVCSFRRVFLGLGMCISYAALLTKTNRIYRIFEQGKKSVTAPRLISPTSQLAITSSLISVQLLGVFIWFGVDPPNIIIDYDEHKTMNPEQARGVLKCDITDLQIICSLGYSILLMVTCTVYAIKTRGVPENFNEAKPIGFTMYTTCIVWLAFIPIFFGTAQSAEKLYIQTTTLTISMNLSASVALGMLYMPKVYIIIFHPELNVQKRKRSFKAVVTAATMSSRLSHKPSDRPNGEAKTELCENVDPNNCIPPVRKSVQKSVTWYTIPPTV

`CCn1ncc2cc(-c3ccc(C)cc3C)ccc2c1=O` [1-1, 6-(2,4-Dimethylphenyl)-2-ethylphthalazin-1(2H)-one] and `CCn1ncc2cc(-c3c(C)cc(C)cc3C)ccc2c1=O` [1-2] fall in the same range of IC50: 100 to 1000 nM for the first, 100 to 1000 nM for the second.

`CCn1ncc2cc(-c3cccc(OC)c3)ccc2c1=O` [1-3] and `CCOc1cccc(-c2ccc3c(=O)n(CC)ncc3c2)c1` [1-7] fall in the same range of IC50: 100 to 1000 nM for the first, 100 to 1000 nM for the second.

`Cc1ccc(-c2ccc3c(=O)n(-c4ccccc4F)ncc3c2)c(C)c1` [1-4, 6-(2,4-Dimethylphenyl)-2-(2-fluorophenyl)phthalazin-1(2H)-one] and `Cc1ccc(-c2ccc3c(=O)n(-c4ccccc4Cl)ncc3c2)c(C)c1` [1-5, 2-(2-Chlorophenyl)-6-(2,4-dimethylphenyl)phthalazin-1(2H)-one] fall in the same range of IC50: 100 to 1000 nM for the first, 100 to 1000 nM for the second.

Compared with `CCn1ncc2cc(-c3cccc(N(C)C)c3)ccc2c1=O` [1-6], `CCn1ncc2cc(-c3cccc(N4CCC4)c3)ccc2c1=O` [1-11, 6-(3-(Azetidin-1-yl)phenyl)-2-ethylphthalazin-1(2H)-one] is lower in IC50: 100 to 1000 nM for the first, less than 100 nM for the second.

`Cc1ccc(-c2ccc3c(=O)n(-c4ccc(S(C)(=O)=O)cc4)ncc3c2)c(C)c1` [1-8, 6-(2,4-Dimethylphenyl)-2-(4-(methylsulfonyl)phenyl)phthalazin-1(2H)-one] and `CC(=O)c1ccc(-n2ncc3cc(-c4ccc(C)cc4C)ccc3c2=O)cc1` [1-12] fall in the same range of IC50: 100 to 1000 nM for the first, 100 to 1000 nM for the second.

Compared with `Cc1ccc(-c2ccc3c(=O)n(-c4ccccn4)ncc3c2)c(C)c1` [1-10], `Cc1ccc(-c2ccc3c(=O)n(-c4ccncc4)ncc3c2)c(C)c1` [1-18] is higher in IC50: less than 100 nM for the first, 100 to 1000 nM for the second. The first is the more potent here.

First: CCn1ncc2cc(-c3cccc(N4CCCC4)c3)ccc2c1=O [1-13, 2-Ethyl-6-(3-(pyrrolidin-1-yl)phenyl)phthalazin-1(2H)-one]
Second: O=c1c2ccc(-c3cccc(N4CCC4)c3)cc2cnn1Cc1ccccc1 [1-20]
The IC50 of the first is higher: 1000 to 10000 nM for the first, 100 to 1000 nM for the second. The second is the more potent here.

First: Cc1ccc(-c2ccc3c(=O)n(-c4ccc(C(C)O)cc4)ncc3c2)c(C)c1 (stereo not drawn) [1-14, 6-(2,4-Dimethylphenyl)-2-(4-(1-hydroxyethyl)phenyl)phthalazin-1(2H)-one]
Second: COc1cccc(-c2ccc3c(=O)n(-c4ncccc4F)ncc3c2)c1C [1-58]
The IC50 of the first is higher: 100 to 1000 nM for the first, less than 100 nM for the second. The second is the more potent here.

First: COc1ccc(-c2ccc3c(=O)n(-c4ccccn4)ncc3c2)cc1 [1-17]
Second: COc1cccc(-c2ccc3c(=O)n(-c4ccccn4)ncc3c2)c1Cl [1-33]
The IC50 of the first is higher: 100 to 1000 nM for the first, less than 100 nM for the second.

First: COc1ccccc1-n1ncc2cc(-c3cccc(N4CCC4)c3)ccc2c1=O [1-19]
Second: O=c1c2ccc(-c3cccc(N4CCC4)c3)cc2cnn1-c1ccccn1 [1-45]
The IC50 of the first is higher: 100 to 1000 nM for the first, less than 100 nM for the second.

First: O=c1c2ccc(-c3cccc(N4CCC4)c3)cc2cnn1-c1ccc(F)cn1 [1-24, 6-(3-(Azetidin-1-yl)phenyl)-2-(5-fluoropyridin-2-yl)phthalazin-1(2H)-one]
Second: O=c1c2ccc(-c3cccc(N4CCC4)c3)cc2cnn1-c1ncc(F)cn1 [1-76]
The IC50 of the first is higher: 100 to 1000 nM for the first, less than 100 nM for the second. The second is the more potent here.

`COc1cccc(-c2ccc3c(=O)n(-c4ncccc4F)ncc3c2)c1` [1-29] and `COc1cccc(-c2ccc3c(=O)n(-c4ncccn4)ncc3c2)c1` [1-31] fall in the same range of IC50: 100 to 1000 nM for the first, 100 to 1000 nM for the second.

`COc1cccc(-c2ccc3c(=O)n(-c4cc(C)ccn4)ncc3c2)c1` [1-30] and `COc1cccc(-c2ccc3c(=O)n(-c4cccc(C)n4)ncc3c2)c1` [1-32] fall in the same range of IC50: 100 to 1000 nM for the first, 100 to 1000 nM for the second.

`O=c1c2ccc(-c3cccc(OC4CC4)c3Cl)cc2cnn1-c1ccccn1` [1-34] and `Cc1c(OC2CC2)cccc1-c1ccc2c(=O)n(-c3ccccn3)ncc2c1` [1-36] cannot be ordered by IC50: less than 100 nM for the first, less than 100 nM for the second.

`COc1cccc(-c2ccc3c(=O)n(-c4ccccn4)ncc3c2)c1C` [1-35] and `COc1cccc(-c2ccc3c(=O)n(-c4ncccn4)ncc3c2)c1C` [1-42] cannot be ordered by IC50: less than 100 nM for the first, less than 100 nM for the second.

`CN1CCc2c(-c3ccc4c(=O)n(-c5ccccn5)ncc4c3)cccc21` [1-37] and `CN1CCCc2c(-c3ccc4c(=O)n(-c5ccccn5)ncc4c3)cccc21` [1-61] cannot be ordered by IC50: less than 100 nM for the first, less than 100 nM for the second.

Compared with `O=c1c2ccc(-c3cccc(OC(F)F)c3)cc2cnn1-c1ccccn1` [1-38], `CC(F)(F)c1cccc(-c2ccc3c(=O)n(-c4ccccn4)ncc3c2)c1` [1-39] is higher in IC50: less than 100 nM for the first, 100 to 1000 nM for the second.

First: COc1cccc(-c2ccc3c(=O)n(-c4ncccn4)ncc3c2)c1Cl [1-40]
Second: O=c1c2ccc(-c3cccc(OC4CC4)c3Cl)cc2cnn1-c1ncccn1 [1-41]
The IC50 of the first is lower: less than 100 nM for the first, 100 to 1000 nM for the second. The first is the more potent here.

First: Cc1c(OC2CC2)cccc1-c1ccc2c(=O)n(-c3ncccn3)ncc2c1 [1-43]
Second: CN1CCc2c(-c3ccc4c(=O)n(-c5ncccn5)ncc4c3)cccc21 [1-44]
The IC50 of the first is higher: 100 to 1000 nM for the first, less than 100 nM for the second.

Compared with `O=c1c2ccc(-c3cccc(N4CCC4)c3)cc2cnn1-c1ncccn1` [1-46], `O=c1c2ccc(-c3cc(N4CCC4)ccn3)cc2cnn1-c1ccccn1` [1-53, 6-(4-(Azetidin-1-yl)pyridin-2-yl)-2-(pyridin-2-yl)phthalazin-1(2H)-one] is higher in IC50: less than 100 nM for the first, 1000 to 10000 nM for the second.

First: O=c1c2ccc(-c3cccc4c3ccn4C3CC3)cc2cnn1-c1ccccn1 [1-47]
Second: O=c1c2ccc(-c3cccc4c3ccn4C3CC3)cc2cnn1-c1ncccn1 [1-48]
The IC50 of the first is higher: 1000 to 10000 nM for the first, 100 to 1000 nM for the second.

First: O=c1c2ccc(-c3cc(F)cc(N4CCC4)c3)cc2cnn1-c1ccccn1 [1-49]
Second: O=c1c2ccc(-c3ccc(F)c(N4CCC4)c3)cc2cnn1-c1ccccn1 [1-51]
The IC50 of the first is lower: 100 to 1000 nM for the first, 1000 to 10000 nM for the second.

Compared with `O=c1c2ccc(-c3nccc(N4CCC4)n3)cc2cnn1-c1ccccn1` [1-50], `O=c1c2ccc(-c3cc(N4CCC4)ccc3F)cc2cnn1-c1ccccn1` [1-52] is lower in IC50: 1000 to 10000 nM for the first, less than 100 nM for the second. The second is the more potent here.

`COc1cccc(-c2ccc3c(=O)n(-c4ncc(C)cn4)ncc3c2)c1C` [1-54] and `COc1cccc(-c2ccc3c(=O)n(-c4ncc(F)cn4)ncc3c2)c1C` [1-62] cannot be ordered by IC50: less than 100 nM for the first, less than 100 nM for the second.

First: COc1cnc(-n2ncc3cc(-c4cccc(OC)c4C)ccc3c2=O)nc1 [1-55]
Second: COc1cccc(-c2ccc3c(=O)n(-c4ncc(OC5CNC5)cn4)ncc3c2)c1C [1-69]
The IC50 of the first is lower: less than 100 nM for the first, 100 to 1000 nM for the second. The first is the more potent here.

`Cc1cnc(-n2ncc3cc(-c4cccc5c4CCN5C)ccc3c2=O)nc1` [1-56] and `COc1cnc(-n2ncc3cc(-c4cccc5c4CCN5C)ccc3c2=O)nc1` [1-57] cannot be ordered by IC50: less than 100 nM for the first, less than 100 nM for the second.

`COc1cccc(-c2ccc3c(=O)n(C4CCOCC4)ncc3c2)c1C` [1-60] and `COc1cccc(-c2ccc3c(=O)n(CCN4CCOCC4)ncc3c2)c1C` [1-66] fall in the same range of IC50: 100 to 1000 nM for the first, 100 to 1000 nM for the second.

`COc1cccc(-c2ccc3c(=O)n(-c4ncc(N5CCN(C)CC5)cn4)ncc3c2)c1C` [1-63] and `COc1cccc(-c2ccc3c(=O)n(-c4ncc(N5CCCC5)cn4)ncc3c2)c1C` [1-70] fall in the same range of IC50: 100 to 1000 nM for the first, 100 to 1000 nM for the second.

First: COc1cccc(-c2ccc3c(=O)n(-c4ncc(N5CCOCC5)cn4)ncc3c2)c1C [1-64]
Second: COc1cccc(-c2ccc3c(=O)n(-c4ncc(N5CCCCC5)cn4)ncc3c2)c1C [1-71]
The IC50 of the first is lower: less than 100 nM for the first, 100 to 1000 nM for the second. The first is the more potent here.

`COc1cccc(-c2ccc3c(=O)n(-c4ncc(N5CCC(O)C5)cn4)ncc3c2)c1C` (stereo not drawn) [1-65] and `COc1cccc(-c2ccc3c(=O)n(-c4ncc(N5CCCC(O)C5)cn4)ncc3c2)c1C` (stereo not drawn) [1-73] cannot be ordered by IC50: less than 100 nM for the first, less than 100 nM for the second.

`COc1cccc(-c2ccc3c(=O)n(-c4ccc(SC)cn4)ncc3c2)c1C` [1-67] and `COc1cccc(-c2ccc3c(=O)n(-c4ccc(S(C)(=O)=O)cn4)ncc3c2)c1C` [1-68] fall in the same range of IC50: 100 to 1000 nM for the first, 100 to 1000 nM for the second.

First: COc1cccc(-c2ccc3c(=O)n(-c4ncc(N5CCC(O)CC5)cn4)ncc3c2)c1C [1-72]
Second: COc1cccc(-c2ccc3c(=O)n(-c4ncc(N5CCSCC5)cn4)ncc3c2)c1C [1-78]
The IC50 of the first is lower: less than 100 nM for the first, 100 to 1000 nM for the second.

`COc1cccc(-c2ccc3c(=O)n(-c4ncc(NC5CCC(O)CC5)cn4)ncc3c2)c1C` (stereo not drawn) [1-74] and `COc1cccc(-c2ccc3c(=O)n(-c4ncc(NC5CCCC(O)C5)cn4)ncc3c2)c1C` (stereo not drawn) [1-75] cannot be ordered by IC50: less than 100 nM for the first, less than 100 nM for the second.

`Cc1c(-c2ccc3c(=O)n(-c4ccccn4)ncc3c2)cccc1N1CCC1` [1-77] and `COc1cccc(-c2ccc3c(=O)n(-c4ncc(NCCN(C)C)cn4)ncc3c2)c1C` [1-80] cannot be ordered by IC50: less than 100 nM for the first, less than 100 nM for the second.

In the case of `COCCNc1cnc(-n2ncc3cc(-c4cccc(OC)c4C)ccc3c2=O)nc1` [1-79], the IC50 is reported as less than 100 nM.
